In patent US20090197967A1, “COMPOSITIONS AND METHODS FOR TREATMENT OF OPHTHALMIC DISEASES AND DISORDERS” (priority 2006, published 2009):

Target: T1, visual cycle trans-cis isomerohydrolase (isomerase) (Bos taurus, UniProt Q28175)
T1 construct: Bovine Retinal Pigment Epithelium (RPE) microsome membranes were the source of visual cycle trans-cis isomerohydrolase (isomerase); from tissue; host or cells: bovine retinal pigment epithelium (RPE) microsome membranes; CRALBP made in E. coli
T1 sequence (Q28175 2-533 limits assumed): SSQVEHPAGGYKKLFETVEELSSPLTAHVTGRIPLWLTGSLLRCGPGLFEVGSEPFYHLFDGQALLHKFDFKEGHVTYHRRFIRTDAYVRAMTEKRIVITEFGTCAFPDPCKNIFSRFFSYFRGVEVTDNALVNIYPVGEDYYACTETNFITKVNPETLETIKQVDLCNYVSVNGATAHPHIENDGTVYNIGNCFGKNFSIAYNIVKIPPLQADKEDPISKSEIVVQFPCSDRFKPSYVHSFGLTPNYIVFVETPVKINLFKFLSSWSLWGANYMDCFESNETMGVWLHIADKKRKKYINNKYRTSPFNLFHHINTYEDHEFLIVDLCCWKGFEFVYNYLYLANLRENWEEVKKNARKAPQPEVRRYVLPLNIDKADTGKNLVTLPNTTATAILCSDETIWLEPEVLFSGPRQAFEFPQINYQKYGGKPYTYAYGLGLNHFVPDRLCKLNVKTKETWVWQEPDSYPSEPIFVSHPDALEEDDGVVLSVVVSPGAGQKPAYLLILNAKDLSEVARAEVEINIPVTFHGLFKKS
Experiment: Isomerase reaction: inhibition of isomerase by retinylamine derivative compounds (bovine RPE microsomes, HPLC read-out)
Assay type: biochemical
Settings: 5 min preincubation at 37° C., 10 μM all-trans-retinol, 6 μM apo-CRALBP, 30 minutes
Procedure: The capability of several retinylamine compounds to inhibit the activity of visual cycle trans-cis isomerohydrolase (isomerase) was determined.
Isomerase and LRAT reaction—The isomerase reaction was performed essentially as described previously (Stecher et al., J Biol Chem 274:8577-85 (1999); see also Golczak et al., supra). Bovine Retinal Pigment Epithelium (RPE) microsome membranes were the source of visual cycle trans-cis isomerohydrolase (isomerase).
RPE microsome membrane extracts may be purchased or prepared according to methods practiced in the art and stored at −80° C. Crude RPE microsome extracts were thawed in a 37° C. water bath, and then immediately placed on ice. 50 ml crude RPE microsomes were placed into a 50 ml Teflon-glass homogenizer (Fisher Scientific, catalog no. 0841416M) on ice, powered by a hand-held DeWalt drill, and homogenized ten times up and down on ice under maximum speed. This process was repeated until the crude RPE microsome solution was homogenized. The homogenate was then subjected to centrifugation (50.2 Ti rotor (Beckman, Fullerton, Calif.), 13,000 RPM; 15360 Rcf) for 15 minutes at 4° C. The supernatant was collected and subjected to centrifugation a5 42,000 RPM (160,000 Rcf, 50.2 Ti rotor) for 1 hour at 4° C. The supernatant was removed, and the pellets were suspended in 12 ml (final volume) cold 10 mM MOPS buffer, pH 7.0. The resuspended RPE membranes in 5 ml aliquots were homogenized in a glass-to-glass homogenizer (Fisher Scientific, catalog no. K885500-0021) to high homogeneity. Protein concentration was quantified using the BCA protein assay according to the manufacturer's protocol (Pierce, Rockford, Ill.; catalog no. 23227). The homogenized RPE preparations were stored at −80° C.
Recombinant human apo cellular retinaldehyde-binding protein (CRALBP) was cloned and expressed according to standard methods in the molecular biology art (see Crabb et al., Protein Science 7:746-57 (1998); Crabb et al., J. Biol. Chem. 263:18688-92 (1988)). Briefly, total RNA was prepared from confluent ARPE19 cells (American Type Culture Collection, Manassas, Va.), cDNA was synthesized using an oligo(dT)12-18 primer, and then DNA encoding CRALBP was amplified by two sequential polymerase chain reactions (see Crabb et al., J. Biol. Chem. 263:18688-92 (1988); Intres, et al., J. Biol. Chem. 269:25411-18 (1994); GenBank Accession No. L34219.1). The PCR product was sub-cloned into pTrcHis2-TOPO TA vector according to the manufacturer's protocol (Invitrogen Inc., Carlsbad, Calif.; catalog no. K4400-01), and then the sequence was confirmed according to standard nucleotide sequencing techniques. Recombinant 6×His-tagged human CRALBP was expressed in One Shot TOP 10 chemically competent E. coli cells (Invitrogen), and the recombinant polypeptide was isolated from E. coli cell lysates by nickel affinity chromatography using Ni Sepharose XKI 6-20 columns for HPLC (Amersham Bioscience, Pittsburgh, Pa.; catalog no. 17-5268-02). The purified 6×His-tagged human CRALBP was dialyzed against 10 mM bis-tris-Propane (BTP) and analyzed by SDS-PAGE. The molecular weight of the recombinant human CRALBP was approximately 39 kDal.
The isomerase assay was performed in 10 mM BTP buffer, pH 7.5, 1% BSA, containing 1 mM ATP and 6 μM apo-CRALBP (cellular retinaldehyde-binding protein). To investigate inhibition properties of retinylamine derivative compounds, RPE microsomes were preincubated for 5 min in 37° C. with a compound in 10 mM BTP buffer, pH 7.5, 1% BSA, and 1 mM ATP prior to addition of apo-CRALBP and 10 μM all-trans-retinol. Retinylamine derivative compounds were delivered to the reaction mixture in 2 μl ethanol. If the compounds were not soluble in ethanol, DMF was added until the compound was in solution. The same volume of ethanol and/or DMF was added to the control reaction (absence of test compound). […]

In order of falling IC50:
1. CC1=C(/C=C/C(C)=C/C=C/CCCCCCN)C(C)(C)CCC1 [Cmpd 13]  200 µM
2. CC1=C(/C=C/C(C)N)C(C)(C)CCC1 (stereo not drawn) [Cmpd 14]  80 µM
3. CC1=C(/C=C/C(C)=C/C=CCCCCCCN)C(C)(C)CCC1 [Cmpd 12]  25 µM
4. CC1=C(/C=C/C(C)=C/C=C/C(C)=C/CN)C(C)(C)CCC1OCc1ccccc1 (stereo not drawn) [Cmpd 11]  17 µM
5. CC1=C(/C=C/C(C)=C/C=C/CCCCN)C(C)(C)CCC1 [Cmpd 10]  14 µM
6. CC1=C(/C=C/C(C)=C/CN)C(C)(C)CCC1 [Cmpd 7]  8.4 µM
7. CC1=C(/C=C/C(C)=C/C=C/CCCN)C(C)(C)CCC1 [Cmpd 9]  6 µM
8. CC1=C(/C=C/C(C)=C/C=C/CN)C(C)(C)CCC1 [Cmpd 4]  5.8 µM
9. CC1=C(/C=C/C(C)=C2C=C/C(=C/CN)CCC/2)C(C)(C)CCC1 [Cmpd 1]  3.1 µM
10. CC(=CCCCCN)/C=C/C1=C(C)CCCC1(C)C [Cmpd 5]  1.7 µM
11. CC1=C(/C=C/C(C)=C/C=C/C(C)=C/CN)C(C)(C)CCC1 [Cmpd 3]  0.7 µM
12. CC1=C(/C=C/C(C)=C/C=C\CCCN)C(C)(C)CCC1 [Cmpd 8]  0.6 µM
13. CC1=C(/C=C/C(C)=C2C=C/C(=C/CN)CC/2)C(C)(C)CCC1 [Cmpd 2]  0.55 µM

System: RXR
Experiment: not given
Settings: at micromolar concentrations; cited from earlier work

For `CC1=C(/C=C/C(C)=C/C=C/C(C)=C/CN)C(C)(C)CCC1` [Ret-NH2, retinylamine], the “interaction with RXR” value is given as “does not interact”.

System: RAR
Experiment: not given
Settings: at micromolar concentrations; cited from earlier work

In the case of `CC1=C(/C=C/C(C)=C/C=C/C(C)=C/CN)C(C)(C)CCC1` [Ret-NH2, retinylamine], the “interaction with RAR” value is given as “does not interact”.
